Measurements from patent US11370847B2, “Single domain antibodies directed against intracellular antigens” (Singh Biotechnology, LLC, priority 2014, dated 2022).
Where “and” joins values, the source holds several entries; their conditions need not be identical. Identical values can stand only once. Like-named read-outs stand apart in the source and are kept apart here.

Columns and labels:
[1] = tested on: STAT3; assay: STAT3 reporter GloResponse SIE-luc2P/HEK293 assay, IL-6 induction; assay type: cell-based; settings: for effect on IL-6 induction of the STAT3 reporter: 24 and 48 hours treatment, VHH13 and VHH69 at highest concentration, VHH14 at both concentrations;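 on all read-outs here: SIE-luc2P/HEK293 reporter cells stimulated with IL-6 at 40 ng/mL (EC80) after pretreatment, luciferase luminescence (RLU) read the following day, triplicate wells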
[2] = tested on: PANC-1 cells; assay: MTT proliferation assay, PANC-1; settings: for Abs: 72 hours
[3] = tested on: SJSA-1 cells; assay: MTT proliferation assay, SJSA-1; assay type: cell-based, human; settings: SJSA-1; 72 hours; 50 μg/ml
[4] = tested on: MDA-MB-231 cells; assay: MTT proliferation assay, MDA-MB-231; assay type: cell-based, human; settings: for Mean: mean absorbance;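 on all read-outs here: proliferation of cultured human cancer cells read by MTT, with treated groups compared against a vehicle control group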
[5] = molecular target: T1, TNF-α (Homo sapiens, UniProt P01375); assay: Inhibition of TNF-α cytotoxicity against U937 by anti-TNF-α VHHs; assay type: cell-based; settings: constant dose of TNF-α at EC50
T1 construct: purchased Sigma-Aldrich
T1 sequence (P01375 77-233 limits assumed): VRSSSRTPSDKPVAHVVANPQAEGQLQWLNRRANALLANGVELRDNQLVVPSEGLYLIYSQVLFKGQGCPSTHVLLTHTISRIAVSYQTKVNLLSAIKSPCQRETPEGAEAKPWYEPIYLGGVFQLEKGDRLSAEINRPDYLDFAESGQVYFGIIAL
Procedure: The concentration of TNF-α required to show measurable modulation of activity in the U937 human […] cell line was evaluated by quantitation of the ATP present, which signals the presence of metabolically active cells using Promega's Cell Titer-Glo® Luminescent Cell Viability assay.
The U937 cells were seeded in a clear polystyrene 96-well microculture plate (Corning® Costar® 96-well flat bottom plate, Cat. #3997) in a total volume of 90 μL/well. After 24 hours of incubation in a humidified incubator at 37° C. with 5% CO2 and 95% air, 5 μL of 20×, serially diluted TNF-α in growth medium was added to each well in duplicate (10 pt dose response, highest concentration 20 ng/mL). Additionally, 5 μL of 20×, diluted staurosporine in growth medium was added to each well in duplicate (concentration 1 nM).
After 24 hours of culture in the presence of test agents, the concentration of compound required to show measurable modulation of TNF-α activity in the U937 cell line as evaluated by quantitation of the ATP present. Percent cell growth was calculated relative to untreated control wells. All tests were performed in duplicate at each concentration level.
The EC50 value for the test agents was estimated using Prism 6.05 by curve-fitting the data using the following four parameter-logistic equation: […]

[6] = tested on: SIE-luc2P/HEK293 cells; assay: BCA protein concentration of reporter cells; assay type: cell-based
[7] = tested on: rabbit anti-llama biotinylated antibody or his-probe (H-3) biotin labeled antibody; assay: ELISA of secondary antibody binding to coated sdAbs; settings: Experiment 3, sdAb coated at 1 μg/mL, stored 1:100 dilution
Procedure: Two assays (Experiment 2 and 3) were performed to assess the binding of the secondary antibody to the sdAbs. A similar ELISA method was utilized except the sdAbs were directly coated onto the assay plate at a concentration of 1 μg/mL. Plates were incubated overnight at 2-8° C. After the incubation, plates were washed (3×) and blocked (3% BSA in PBS) for at least one hour at room temperature.
After removal of the blocking buffer and washing (3×), the secondary antibodies, either rabbit anti-llama biotinylated antibody or his-probe (H-3) biotin labeled antibody at was then added at a 1:5,000 dilution to each well and incubated with shaking for at least one hour at room temperature. Only the rabbit anti-llama biotinylated antibody was used in Experiment 2. Both antibodies were run in parallel in Experiment 3.
After the incubation with secondary antibody, the plates were again washed (3×) and HRP at a 1:50,000 dilution was added to each well. Plates were incubated with shaking for at least one hour at room temperature. One last wash (3×) was performed followed by the addition of TMB substrate and plates were incubated at room temperature. For the anti-llama biotinylated antibody stop solution was added to halt the colorimetric reaction at 10 minutes. The his-probe (H-3) biotin labeled antibody was allowed to incubate for 20 minutes prior to stopping. The absorbance at 450 nm was measured as before.

[8] = molecular target: T2, active human TNF-α full length protein (Homo sapiens, UniProt P01375); assay: TNF-α binding ELISA; settings: for detection in coated versus non-coated wells: 0.5 μg/mL coating antigen, sdAb at 1 μg/mL; for detection in TNF-α ELISA: Experiment 1, 1 μg/mL sdAb; for OD450 Values: Non-Coated wells (non-specific binding), sdAb 1 μg/mL
T2 construct: active human TNF-α full length protein; purchased Abcam
T2 sequence (P01375 77-233 limits assumed): as above
Procedure: In this Example, the binding of anti-TNF-α sdAbs to active human TNF-α full length protein was assessed using an enzyme linked immunosorbent assay (ELISA) format. Additionally, the feasibility of utilizing a secondary antibody targeted to the his tag portion of the sdAbs was assessed.
The test articles for this study were anti-TNF-α VHH62 (SEQ ID NO:47) sdAb, TNF-α VHH66 (SEQ ID NO:45) sdAb, and anti-TNF-α VHH69 (SEQ ID NO:46) sdAb (Experiment 1).
For the assays to assess the binding of the sdAbs to TNF-α protein (Experiment 1, 4 and 5), a standard sandwich ELISA format was utilized. […] Plates were incubated overnight at 2-8° C. After the incubation, plates were washed (3×) and blocked (3% Bovine Serum Albumin (BSA) in Phosphate Buffered Saline (PBS)) for at least one hour at room temperature.
After removal of the blocking buffer and washing (3×), samples were added to the appropriate wells of the ELISA plates and incubated at room temperature with shaking (150 rpm) for at least one hour. The secondary antibody (rabbit anti-llama biotinylated antibody at either a1:5,000 or 10,000 dilution) was then added to each well and incubated with shaking for at least one hour at room temperature.
After the incubation with secondary antibody, the plates were again washed (3×) and horseradish peroxidase (HRP) at either a 1:25,000 or 1:50,000 dilution was added to each well. Plates were incubated with shaking for at least one hour at room temperature. A final wash (3×) was performed followed by the addition of TMB (Tetramethylbenzidine) substrate. After a 20 to 25 minute incubation at room temperature, stop solution was added to halt the colorimetric reaction. The absorbance at 450 nm was measured on a VersaMax instrument utilizing SoftMax Pro GxP version 5.4 software from Molecular Devices (Sunnyvale, Calif.).
The final experiment performed was to confirm that the results from the ELISA testing were due to binding to the TNF-α protein and not non-specific binding of the sdAb. For this determination, a comparison was made between wells coated with 0.5 μg/mL of coating antigen and non-coated wells. […] This experiment confirms that the detection seen with the previous experiments was due to the specific binding of the VHH to the coating antigen and not due to non-specific binding.

[9] = 24 Hour Treatment Prior to IL6 Induction, higher conc.: VHH13 55.8 μg/mL, VHH14 84.3 μg/mL, BB1608 4.16 μM, VHH69 50.5 μg/mL
[10] = 24 Hour Treatment Prior to IL6 Induction, lower conc.: VHH13, VHH14, VHH69 10 μg/mL, BB1608 2 μM
[11] = 48 Hour Treatment Prior to IL6 Induction, higher conc.: VHH13 55.8 μg/mL, VHH14 84.3 μg/mL, BB1608 4.16 μM, VHH69 50.5 μg/mL
[12] = 48 Hour Treatment Prior to IL6 Induction, lower conc.: VHH13, VHH14, VHH69 10 μg/mL, BB1608 2 μM
[13] = Homo sapiens, PANC-1, 72 h, read-out: % Inhibition, Growth Inhibition of PANC-1 Cells
[14] = Rabbit anti-Llama Secondary Antibody

Molecule: CC(=O)c1cc2c(o1)C(=O)c1ccccc1C2=O [BBI608, napabucasin, reference compound]
- Average RLU [1, 9]: 33 RLU
- Luminescence (replicate wells) [1, 9]: 41 RLU and 28 RLU and 31 RLU
- Fold-Induction RLU/RLU of −IL6 [1, 10]: 0
- Luminescence (replicate wells) [1, 10]: 41 RLU and 33 RLU and 39 RLU
- effect on IL-6 induction of the STAT3 reporter [1]: Inhibition of IL-6
- Fold-Induction RLU/RLU of −IL6 [1, 11]: 0
- Luminescence (replicate wells) [1, 11]: 32 RLU and 25 RLU and 31 RLU
- Average RLU [1, 12]: 33 RLU
- Luminescence (replicate wells) [1, 12]: 31 RLU and 26 RLU and 42 RLU

Molecule: Nc1ccn([C@@H]2O[C@H](CO)[C@@H](O)C2(F)F)c(=O)n1 [Gemcitabine]
- Abs ([2]; Gemcitabine Hydrochloride (Biovision #1759) 0.020 μM alone): 1.631
- Abs ([2]; Gemcitabine Hydrochloride (Biovision #1759) 0.039 μM alone): 1.550
- Abs ([2]; Gemcitabine Hydrochloride (Biovision #1759) 0.313 μM alone): 1.084
- Abs ([2]; Gemcitabine Hydrochloride (Biovision #1759) 0.625 μM alone): 1.001
- Abs ([2]; Gemcitabine Hydrochloride (Biovision #1759) 5 μM alone): 0.654
- Abs ([2]; Gemcitabine Hydrochloride (Biovision #1759) 10 μM alone): 0.576
- inhibition at 0.02 µM ([2]; Homo sapiens, PANC-1): 0%
- inhibition at 0.039 µM ([2]; Homo sapiens, PANC-1): 0%
- inhibition at 0.313 µM ([2]; Homo sapiens, PANC-1): 5%
- inhibition at 0.625 µM ([2]; Homo sapiens, PANC-1): 0%
- inhibition at 5 µM ([2]; Homo sapiens, PANC-1): 40%
- inhibition at 10 µM ([2]; Homo sapiens, PANC-1): 48%
- inhibition at 5 µM [2, 13]: 38%
- inhibition at 10 µM [2, 13]: 35%
- inhibition at 10 µM ([2]; Homo sapiens, PANC-1, 72 h, read-out: growth inhibition of PANC-1 cells): 48%

Molecule: Curirx P04: SBT-100 produced by Curirx, P04 buffer sample
- growth inhibition [3]: significant growth inhibition

Molecule: MPT B1 (pH 5.0): SBT-100 produced by Microprotein Technologies
- MTT absorbance, single replicates ([4]; MDA-MB-231, 50 μg/ml): 0.924 and 0.741 and 0.834 and 0.749 and 0.771 and 0.77
- Mean ([4]; MDA-MB-231, 50 μg/ml): 0.798
- MTT absorbance, single replicates ([4]; MDA-MB-231, 100 μg/ml): 0.65 and 0.656 and 0.624
- Mean ([4]; MDA-MB-231, 100 μg/ml): 0.643

Molecule: MPT His Tag: SBT-100 produced by Microprotein Technologies, His tag preparation
- inhibition compared with other SBT-100 preparations ([4]; MDA-MB-231): greatest inhibition
- MTT absorbance, single replicates ([4]; MDA-MB-231, 50 μg/ml): 0.095 and 0.091 and 0.102 and 0.1 and 0.087 and 0.092
- Mean ([4]; MDA-MB-231, 50 μg/ml): 0.0945
- MTT absorbance, single replicates ([4]; MDA-MB-231, 100 μg/ml): 0.74 and 0.8 and 0.82
- Mean ([4]; MDA-MB-231, 100 μg/ml): 0.079

B1: anti-STAT3 VHH14: second anti-STAT3 sdAb, SEQ ID NO:4 (protein)
VHH: QVQLVESGGGSVQAGGSLRLSCVASTYTGCMGWFRQAPGKEREGVAALSSRGFAGHYTDSVKGRFSISRDYVKNAVYLQMNTVKPEDAAMYYCAAREGWECGETWLDRTAGGHTYWGQGTLVTVSS
modifications: Camelid
- effect on IL-6 induction of the STAT3 reporter [1]: enhancement of the IL-6 induction

B2: anti-TNF-α VHH69: anti-TNF-α sdAb, SEQ ID NO:46 (protein)
VHH: EVQLVESGGGSVLAGGSLRLSCVASGFTSRYNYMAWFRQAPGKEREGVATIGTASGSADYYGSVKDRFTISQDNAKNTVYLQMNSLKPEDTAMYYCAARTYGTISLTPSDYRYWGQGTLVTVSS
modifications: Camelid
- inhibition of TNF-α killing of U937 [5]: inhibit killing of U937 by TNF-α
- Average RLU [1, 9]: 198596 RLU
- Average RLU with Media Blank [1, 9]: 198571 RLU
- Fold-Induction RLU/RLU of −IL6 [1, 9]: 434
- Luminescence (replicate wells) [1, 9]: 203139 RLU and 194320 RLU and 198330 RLU
- Average RLU [1, 10]: 169752 RLU
- Average RLU with Media Blank [1, 10]: 169726 RLU
- Fold-Induction RLU/RLU of −IL6 [1, 10]: 371
- Luminescence (replicate wells) [1, 10]: 159115 RLU and 184364 RLU and 165776 RLU
- effect on IL-6 induction of the STAT3 reporter [1]: enhancement of the IL-6 induction
- Average RLU [1, 11]: 225726 RLU
- Average RLU with Media Blank [1, 11]: 225694 RLU
- Fold-Induction RLU/RLU of −IL6 [1, 11]: 452
- Luminescence (replicate wells) [1, 11]: 219104 RLU and 237816 RLU and 220259 RLU
- Average RLU [1, 12]: 172988 RLU
- Average RLU with Media Blank [1, 12]: 172955 RLU
- Fold-Induction RLU/RLU of −IL6 [1, 12]: 347
- Luminescence (replicate wells) [1, 12]: 155927 RLU and 191241 RLU and 171796 RLU
- Protein concentration [6, 9]: 213
- Protein concentration [6, 10]: 237
- Protein concentration [6, 12]: 222
- OD450 Values ([7]; His-probe (H-3)): 0.153
- OD450 Values [7, 14]: 0.443
- detection in coated versus non-coated wells [8]: detected in coated wells but not in non-coated wells
- detection in TNF-α ELISA [8]: little to no detection
- OD450 Values [8]: 0.007

B3: anti-TNF-α VHH62: anti-TNF-α sdAb, SEQ ID NO:47 (protein)
VHH: QVQLVESGGGPVQAGETLRLSCTASGFTFAEADMGWYRQAPGHECELVSTITTEGITSEASSYYADSVRGRFTISRDNAKNMVYLQMNSLKPEDTAVYYCAPDPYAYSTYSDYCSWAQGTQGTLVTVSS
modifications: Camelid
- inhibition of TNF-α killing of U937 [5]: inhibit killing of U937 by TNF-α
- OD450 Values ([7]; His-probe (H-3)): 0.196
- OD450 Values [7, 14]: 2.341
- detection in coated versus non-coated wells [8]: not detected in either coated or non-coated wells
- detection in TNF-α ELISA [8]: little to no detection
- OD450 ([8]; Experiment 4, original and new receipt, dilutions starting at 1 μg/mL): < 0.2 OD450
- OD450 Values [8]: −0.001
